# Measurements as given in patent publication US20230093099A1, “COMPOUNDS AND METHODS OF TREATING CANCERS” (CULLGEN (SHANGHAI), INC., priority 2019, published 2023).
# System: RS4;11 cells
# Test: Cell viability assay (CellTiter-Glo) in RS4;11 cells
# Assay type: cell-based
# Conditions: Homo sapiens, 72 h; RS4;11 ALL cells treated for three days; read-out: cell viability inhibition IC50
# How it was run: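 Three-day compound treatment of RS4;11 ALL cells (5000/well, 3-fold dilution series of 8 or 12 points), with IC50 from a nonlinear least-squares fit to CellTiter-Glo viability data.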
row,SMILES,IC50 [µM]
1,"CS(=O)(=O)c1ccc(-c2cccc3nc(Nc4ccc(N5CCN(C(=O)CCCCCCNc6ccc7c(c6)C(=O)N(C6CCC(=O)NC6=O)C7=O)CC5)cc4)nn23)cc1 (stereo not shown) [JA-199, 2-(2,6-dioxopiperidin-3-yl)-5-((7-(4-(4-((5-(4-(methylsulfonyl)phenyl)-[1,2,4]triazolo[1,5-a]pyridin-2-yl)amino)phenyl)piperazin-1-yl)-7-oxoheptyl)amino)isoindoline-1,3-dione]",< 0.1

# Same assay, conditions: Homo sapiens, 72 h; RS4;11 cells; cell viability, 3 days, CellTiter-Glo; read-out: IC50
row,SMILES,IC50 [µM]
1,"CS(=O)(=O)c1ccc(-c2cccc3nc(Nc4ccc(N5CCN(C(=O)CCCCCNc6ccc7c(c6)C(=O)N(C6CCC(=O)NC6=O)C7)CC5)cc4)nn23)cc1 (stereo not shown) [JA-276, 3-(6-((6-(4-(4-((5-(4-(Methylsulfonyl)phenyl)-[1,2,4]triazolo[1,5-a]pyridin-2-yl)amino)phenyl)piperazin-1-yl)-6-oxohexyl)amino)-1-oxoisoindolin-2-yl)piperidine-2,6-dione]",> 10
2,"CS(=O)(=O)c1ccc(-c2cccc3nc(Nc4ccc(N5CCN(C(=O)CCOCCOCCNc6cccc7c6C(=O)N(C6CCC(=O)NC6=O)C7=O)CC5)cc4)nn23)cc1 (stereo not shown) [JA-075, 2-(2,6-Dioxopiperidin-3-yl)-4-((2-(2-(3-(4-(4-((5-(4-(methylsulfonyl)phenyl)-[1,2,4]triazolo[1,5-a]pyridin-2-yl)amino)phenyl)piperazin-1-yl)-3-oxopropoxy)ethoxy)ethyl)amino)isoindoline-1,3-dione]",2.43
3,"Cc1cnc(Nc2ccc(N3CCN(C(=O)CCCCC(=O)N[C@H](C(=O)N4C[C@H](O)C[C@H]4C(=O)NCc4ccc(-c5scnc5C)cc4)C(C)(C)C)CC3)cc2)nc1Nc1cccc(S(=O)(=O)NC(C)(C)C)c1 [JA-024, (2S,4R)-1-((S)-2-(6-(4-(4-((4-((3-(N-(tert-Butyl)sulfamoyl)phenyl)amino)-5-methylpyrimidin-2-yl)amino)phenyl)piperazin-1-yl)-6-oxohexanamido)-3,3-dimethylbutanoyl)-4-hydroxy-N-(4-(4-methylthiazol-5-yl)benzyl)pyrrolidine-2-carboxamide]",> 10
4,"Cc1cnc(Nc2ccc(N3CCN(CC(=O)NCCCCCCCNc4cccc5c4C(=O)N(C4CCC(=O)NC4=O)C5=O)CC3)cc2)nc1Nc1cccc(S(=O)(=O)NC(C)(C)C)c1 (stereo not shown) [JA-095, 2-(4-(4-((4-((3-(N-(tert-Butyl)sulfamoyl)phenyl)amino)-5-methylpyrimidin-2-yl)amino)phenyl)piperazin-1-yl)-N-(7-((2-(2,6-dioxopiperidin-3-yl)-1,3-dioxoisoindolin-4-yl)amino)heptyl)acetamide]",0.121
5,"Cc1cnc(Nc2ccc(N3CCN(CC(=O)NCCCCNc4cccc5c4C(=O)N(C4CCC(=O)NC4=O)C5=O)CC3)cc2)nc1Nc1cccc(S(=O)(=O)NC(C)(C)C)c1 (stereo not shown) [JA-092, 2-(4-(4-((4-((3-(N-(tert-Butyl)sulfamoyl)phenyl)amino)-5-methylpyrimidin-2-yl)amino)phenyl)piperazin-1-yl)-N-(4-((2-(2,6-dioxopiperidin-3-yl)-1,3-dioxoisoindolin-4-yl)amino)butyl)acetamide]",2.83
6,"Cc1ncsc1-c1ccc(CNC(=O)[C@@H]2C[C@@H](O)CN2C(=O)[C@@H](NC(=O)CCOCCC(=O)N2CCN(c3ccc(Nc4nc5cccc(-c6ccc(S(C)(=O)=O)cc6)n5n4)cc3)CC2)C(C)(C)C)cc1 [JA-082, 4-Hydroxy-1-(2-{3-[3-(4-{4-[5-(4-methanesulfonyl-phenyl)-[1,2,4]triazolo[1,5-a]pyridin-2-ylamino]-phenyl}-piperazin-1-yl)-3-oxo-propoxy]-propionylamino}-3,3-dimethyl-butyryl)-pyrrolidine-2-carboxylic acid 4-(4-methyl-thiazol-5-yl)-benzylamide]",6.43
7,"Cc1cnc(Nc2ccc(N3CCN(C(=O)CCOCCOCCOCCC(=O)N[C@H](C(=O)N4C[C@H](O)C[C@H]4C(=O)NCc4ccc(-c5scnc5C)cc4)C(C)(C)C)CC3)cc2)nc1Nc1cccc(S(=O)(=O)NC(C)(C)C)c1 [JA-034, (2S,4R)-1-((S)-2-(tert-Butyl)-16-(4-(4-((4-((3-(N-(tert-butyl)sulfamoyl)phenyl)amino)-5-methylpyrimidin-2-yl)amino)phenyl)piperazin-1-yl)-4,16-dioxo-7,10,13-trioxa-3-azahexadecanoyl)-4-hydroxy-N-(4-(4-methylthiazol-5-yl)benzyl)pyrrolidine-2-carboxamide]",> 10
8,"Cc1cnc(Nc2ccc(N3CCN(C(=O)CCOCCOCCOCCOCCOCCC(=O)N[C@H](C(=O)N4C[C@H](O)C[C@H]4C(=O)NCc4ccc(-c5scnc5C)cc4)C(C)(C)C)CC3)cc2)nc1Nc1cccc(S(=O)(=O)NC(C)(C)C)c1 [JA-037, (2S,4R)-1-((S)-2-(tert-Butyl)-22-(4-(4-((4-((3-(N-(tert-butyl)sulfamoyl)phenyl)amino)-5-methylpyrimidin-2-yl)amino)phenyl)piperazin-1-yl)-4,22-dioxo-7,10,13,16,19-pentaoxa-3-azadocosanoyl)-4-hydroxy-N-(4-(4-methylthiazol-5-yl)benzyl)pyrrolidine-2-carboxamide]",> 10
9,"Cc1ncsc1-c1ccc(CNC(=O)[C@@H]2C[C@@H](O)CN2C(=O)[C@@H](NC(=O)CNC(=O)CN2CCN(c3ccc(Nc4nc5cccc(-c6ccc(S(C)(=O)=O)cc6)n5n4)cc3)CC2)C(C)(C)C)cc1 [JA-126, (2S,4R)-1-((S)-3,3-Dimethyl-2-(2-(2-(4-(4-((5-(4-(methylsulfonyl)phenyl)-[1,2,4]triazolo[1,5-a]pyridin-2-yl)amino)phenyl)piperazin-1-yl)acetamido)acetamido)butanoyl)-4-hydroxy-N-(4-(4-methylthiazol-5-yl)benzyl)pyrrolidine-2-carboxamide]",> 10
10,"Cc1cnc(Nc2ccc(N3CCN(CC(=O)NCCNc4ccc5c(c4)C(=O)N(C4CCC(=O)NC4=O)C5=O)CC3)cc2)nc1Nc1cccc(S(=O)(=O)NC(C)(C)C)c1 (stereo not shown) [JA-242, 2-(4-(4-((4-((3-(N-(tert-butyl)sulfamoyl)phenyl)amino)-5-methylpyrimidin-2-yl)amino)phenyl)piperazin-1-yl)-N-(2-((2-(2,6-dioxopiperidin-3-yl)-1,3-dioxoisoindolin-5-yl)amino)ethyl)acetamide]",0.543
11,"Cc1cnc(Nc2ccc(N3CCN(CC(=O)NCCCCCCCC(=O)N[C@H](C(=O)N4C[C@H](O)C[C@H]4C(=O)NCc4ccc(-c5scnc5C)cc4)C(C)(C)C)CC3)cc2)nc1Nc1cccc(S(=O)(=O)NC(C)(C)C)c1 [JA-103, (2S,4R)-1-((S)-2-(8-(2-(4-(4-((4-((3-(N-(tert-Butyl)sulfamoyl)phenyl)amino)-5-methylpyrimidin-2-yl)amino)phenyl)piperazin-1-yl)acetamido)octanamido)-3,3-dimethylbutanoyl)-4-hydroxy-N-(4-(4-methylthiazol-5-yl)benzyl)pyrrolidine-2-carboxamide]",8.96
12,"CS(=O)(=O)c1ccc(-c2cccc3nc(Nc4ccc(N5CCN(CC(=O)NCCCCCCCCNc6cccc7c6C(=O)N(C6CCC(=O)NC6=O)C7=O)CC5)cc4)nn23)cc1 (stereo not shown) [JA-118, N-(8-((2-(2,6-Dioxopiperidin-3-yl)-1,3-dioxoisoindolin-4-yl)amino)octyl)-2-(4-(4-((5-(4-(methylsulfonyl)phenyl)-[1,2,4]triazolo[1,5-a]pyridin-2-yl)amino)phenyl)piperazin-1-yl)acetamide]",> 10
13,"Cc1cnc(Nc2ccc(N3CCN(C(=O)CCOCCNc4ccc5c(c4)C(=O)N(C4CCC(=O)NC4=O)C5=O)CC3)cc2)nc1Nc1cccc(S(=O)(=O)NC(C)(C)C)c1 (stereo not shown) [JA-232, N-(tert-butyl)-3-((2-((4-(4-(3-(2-((2-(2,6-dioxopiperidin-3-yl)-1,3-dioxoisoindolin-5-yl)amino)ethoxy)propanoyl)piperazin-1-yl)phenyl)amino)-5-methylpyrimidin-4-yl)amino)benzenesulfonamide]",> 10
14,"CS(=O)(=O)c1ccc(-c2cccc3nc(Nc4ccc(N5CCN(C(=O)CCCCCCNc6ccc7c(c6)C(=O)N(C6CCC(=O)NC6=O)C7=O)CC5)cc4)nn23)cc1 (stereo not shown) [JA-199, 2-(2,6-dioxopiperidin-3-yl)-5-((7-(4-(4-((5-(4-(methylsulfonyl)phenyl)-[1,2,4]triazolo[1,5-a]pyridin-2-yl)amino)phenyl)piperazin-1-yl)-7-oxoheptyl)amino)isoindoline-1,3-dione]",0.0325
15,"Cc1cnc(Nc2ccc(N3CCN(CC(=O)NCCCCCCCCCCC(=O)N[C@H](C(=O)N4C[C@H](O)C[C@H]4C(=O)NCc4ccc(-c5scnc5C)cc4)C(C)(C)C)CC3)cc2)nc1Nc1cccc(S(=O)(=O)NC(C)(C)C)c1 [JA-106, (2S,4R)-1-((S)-2-(11-(2-(4-(4-((4-((3-(N-(tert-Butyl)sulfamoyl)phenyl)amino)-5-methylpyrimidin-2-yl)amino)phenyl)piperazin-1-yl)acetamido)undecanamido)-3,3-dimethylbutanoyl)-4-hydroxy-N-(4-(4-methylthiazol-5-yl)benzyl)pyrrolidine-2-carboxamide]",> 10
16,"Cc1cnc(Nc2ccc(N3CCN(CC(=O)NCCOCCNc4ccc5c(c4)C(=O)N(C4CCC(=O)NC4=O)C5=O)CC3)cc2)nc1Nc1cccc(S(=O)(=O)NC(C)(C)C)c1 (stereo not shown) [JA-237, 2-(4-(4-((4-((3-(N-(tert-butyl)sulfamoyl)phenyl)amino)-5-methylpyrimidin-2-yl)amino)phenyl)piperazin-1-yl)-N-(2-(2-((2-(2,6-dioxopiperidin-3-yl)-1,3-dioxoisoindolin-5-yl)amino)ethoxy)ethyl)acetamide]",> 10
17,"Cc1ncsc1-c1ccc(CNC(=O)[C@@H]2C[C@@H](O)CN2C(=O)[C@@H](NC(=O)CCCCCC(=O)N2CCC(n3cc(-c4cnc5cccc(-c6cc(F)c(CN7CCOCC7)c(F)c6)c5n4)cn3)CC2)C(C)(C)C)cc1 [JA-048, (2S,4R)-1-[(2S)-2-[[7-[4-[4-[8-[3,5-Difluoro-4-(morpholinomethyl)phenyl]quinoxalin-2-yl]pyrazol-1-yl]-1-piperidyl]-7-oxo-heptanoyl]amino]-3,3-dimethyl-butanoyl]-4-hydroxy-N-[[4-(4-methylthiazol-5-yl)phenyl]methyl]pyrrolidine-2-carboxamide]",> 10
18,"Cc1cnc(Nc2ccc(N3CCN(CC(=O)NCCOCCNc4cccc5c4C(=O)N(C4CCC(=O)NC4=O)C5=O)CC3)cc2)nc1Nc1cccc(S(=O)(=O)NC(C)(C)C)c1 (stereo not shown) [JA-087, 2-(4-(4-((4-((3-(N-(tert-Butyl)sulfamoyl)phenyl)amino)-5-methylpyrimidin-2-yl)amino)phenyl)piperazin-1-yl)-N-(2-(2-((2-(2,6-dioxopiperidin-3-yl)-1,3-dioxoisoindolin-4-yl)amino)ethoxy)ethyl)acetamide]",0.143
